The nature of data set [1]: Drug uptake in brain of mouse xenografted with human NCI-H2122 cells at 50 mg/kg, ip after 3 hrs by LC-MS/MS analysis. The format is ADME, organism-based. The conditions noted are these: read-out: Drug uptake. (A xenograft is tissue or cells of one species grown in another, often human tumour cells in immunodeficient mice.)
Data set [2] can be described thus: Drug metabolism in CD1 mouse liver microsomes assessed as CYP450-mediated M7 metabolite formation at 16.7 uM up to 60 mins in presence of NADPH by LC-MS/MS analysis. The class given is ADME. To be noted: 1 h.
Data set [3] in a line: Drug metabolism in mouse xenografted with human NCI-H2122 cells assessed as M6 metabolite formation in liver at 50 mg/kg, ip after 3 hrs by LC-MS/MS analysis. To be noted: in vivo. The format is ADME, organism-based.
The nature of data set [4]: Drug metabolism in mouse xenografted with human NCI-H2122 cells assessed as M7 metabolite formation in kidney at 50 mg/kg, ip after 3 hrs by LC-MS/MS analysis. The conditions noted are these: in vivo. The format is ADME, organism-based.
A short description of data set [5]: Plasma concentration in mouse xenografted with human NCI-H2122 cells at 50 mg/kg, ip after 3 hrs by LC-MS/MS analysis. The class given is ADME, organism-based.
Data set [6] in a line: Drug metabolism in mouse xenografted with human NCI-H2122 cells assessed as M7 metabolite formation in brain at 50 mg/kg, ip after 3 hrs by LC-MS/MS analysis. The format is ADME, organism-based. The conditions noted are these: in vivo.
Data set [7] is described as follows: Drug metabolism in mouse xenografted with human NCI-H2122 cells assessed as M7 metabolite formation in heart at 50 mg/kg, ip after 3 hrs by LC-MS/MS analysis. To be noted: in vivo. The class given is ADME, organism-based.
A short description of data set [8]: Drug uptake in tumor of mouse xenografted with human NCI-H2122 cells at 50 mg/kg, ip after 3 hrs by LC-MS/MS analysis. The format is ADME, organism-based, Neoplasm. To be noted: read-out: Drug uptake.
A short description of data set [9]: Drug metabolism in mouse xenografted with human NCI-H2122 cells assessed as M7 metabolite formation in liver at 50 mg/kg, ip after 3 hrs by LC-MS/MS analysis. The class given is ADME, organism-based. The conditions noted are these: in vivo.
Data set [10] can be described thus: Drug metabolism in mouse xenografted with human NCI-H2122 cells assessed as M7 metabolite formation in plasma at 50 mg/kg, ip after 3 hrs by LC-MS/MS analysis. The conditions noted are these: in vivo. The class given is ADME, organism-based.
Data set [11] can be described thus: Drug metabolism in mouse xenografted with human NCI-H2122 cells assessed as M6 metabolite formation in kidney at 50 mg/kg, ip after 3 hrs by LC-MS/MS analysis. The format is ADME, organism-based. To be noted: in vivo.
A short description of data set [12]: Drug metabolism in mouse xenografted with human NCI-H2122 cells assessed as M6 metabolite formation in heart at 50 mg/kg, ip after 3 hrs by LC-MS/MS analysis. The format is ADME, organism-based. The conditions noted are these: in vivo.
Data set [13] in a line: Drug uptake in kidney of mouse xenografted with human NCI-H2122 cells at 50 mg/kg, ip after 3 hrs by LC-MS/MS analysis. The format is ADME, organism-based. The conditions noted are these: read-out: Drug uptake.
Data set [14] can be described thus: Drug metabolism in CD1 mouse liver microsomes assessed as CYP450-mediated M6 metabolite formation at 16.7 uM up to 60 mins in presence of NADPH by LC-MS/MS analysis. The format is ADME. The conditions noted are these: 1 h.
The nature of data set [15]: Drug uptake in lungs of mouse xenografted with human NCI-H2122 cells at 50 mg/kg, ip after 3 hrs by LC-MS/MS analysis. The class given is ADME, organism-based. To be noted: lung, read-out: Drug uptake.
Data set [16] is described as follows: Drug uptake in heart of mouse xenografted with human NCI-H2122 cells at 50 mg/kg, ip after 3 hrs by LC-MS/MS analysis. The format is ADME, organism-based. To be noted: read-out: Drug uptake.
The nature of data set [17]: Drug metabolism in mouse xenografted with human NCI-H2122 cells assessed as M7 metabolite formation in tumor at 50 mg/kg, ip after 3 hrs by LC-MS/MS analysis. The class given is ADME, organism-based, Neoplasm. The conditions noted are these: in vivo.
The nature of data set [18]: Drug metabolism in mouse xenografted with human NCI-H2122 cells assessed as M6 metabolite formation in tumor at 50 mg/kg, ip after 3 hrs by LC-MS/MS analysis. The format is ADME, organism-based, Neoplasm. To be noted: in vivo.
Data set [19] is described as follows: Drug metabolism in mouse xenografted with human NCI-H2122 cells assessed as M7 metabolite formation in lungs at 50 mg/kg, ip after 3 hrs by LC-MS/MS analysis. The format is ADME, organism-based, Lung. The conditions noted are these: in vivo.
Data set [20] in a line: Drug uptake in liver of mouse xenografted with human NCI-H2122 cells at 50 mg/kg, ip after 3 hrs by LC-MS/MS analysis. The class given is ADME, organism-based. The conditions noted are these: read-out: Drug uptake.
Data set [21] is described as follows: Drug metabolism in mouse xenografted with human NCI-H2122 cells assessed as M6 metabolite formation in plasma at 50 mg/kg, ip after 3 hrs by LC-MS/MS analysis. The class given is ADME, organism-based. The conditions noted are these: in vivo.
A short description of data set [22]: Drug metabolism in mouse xenografted with human NCI-H2122 cells assessed as M6 metabolite formation in lungs at 50 mg/kg, ip after 3 hrs by LC-MS/MS analysis. To be noted: in vivo. The format is ADME, organism-based, Lung.

Here are results for one compound from ChEMBL document CHEMBL3870328, “Synthesis of novel Ral inhibitors: An in vitro and in vivo study” (Bioorg Med Chem Lett, 2016).

For `CCCCC(=O)C1c2ccccc2NC2=C(C(=O)CCC2)C1c1ccccc1Cl` (configuration not stated), the concentration at 3 h was 210 ng/g in data set [1]; 3950 ng/mL in data set [5]; 4170 ng/g in data set [8]; 5730 ng/g in data set [13]; 3180 ng/g in [15]; 3540 ng/g in [16]. For the same compound, the concentration at 3 h in data set [20] worked out at 11500 ng/g. The Drug metabolism result in data set [2] is given as “Metabolite_Detected”; in [3], 2531.5 ng/g; in data set [4], 839.9 ng/g; in data set [6], 17 ng/g; in data set [7], 472.6 ng/g; in data set [9], 2822.9 ng/g. Also, the Drug metabolism in data set [10] was 656.2 ng/mL; in [11], 350.6 ng/g; in data set [12], 52.8 ng/g; in data set [14], “Metabolite_Detected”; in [17], 413 ng/g; in data set [18], 145.5 ng/g. For the same compound, the Drug metabolism in [19] is 487.4 ng/g; in data set [21], 147.5 ng/mL; in data set [22] it was 47.7 ng/g.
